The test system of assay [1] is cutaneous delayed-type hypersensitivity reactions. Put plainly: cutaneous delayed-type hypersensitivity (DTH) to mBSA. The assay is classed as in vivo, mice. The settings on record: 15 mg/kg IP once per 24 hours; vs vehicle, p<0.05. As for the experimental part:
As noted above, cutaneous delayed-type hypersensitivity reactions (DTH) are an in vivo test of T cell activation. […] A compound which inhibits the cytokine of biological activity of MIF may be expected to inhibit the development of DTH reactions in vivo. DTH reactions were induced in mice developing antigen-induced arthritis (see below). C57BL6/J male mice, aged 7-10 weeks old, were immunized on day 0 with 200 μg methylated BSA (mBSA) emulsified in 200 μl of Freund's complete adjuvant (FCA) injected subcutaneously into the flank skin. Mice were treated with compound 5, administered by intraperitoneal injection, once per 24 hours at a dose of 15 mg/kg body weight. After seven days, mice received 100 μg mBSA and 100 μl FCA by intradermal injection at the base of the tail. After a further 14 days, arthritis was induced by intra-articular injection of 30 μg mBSA in 10 μl of sterile saline into the left knee, the right knee being injected with sterile saline alone. DTH reactions were induced as follows: these mice were challenged 24 h before the end of the experiment by intradermal injection of 50 μg mBSA in 20 μl saline into one hind footpad. […] Footpad swelling was quantified 24 h later using a micrometer. DTH was recorded as the difference in skin swelling between mBSA and saline-injected footpads, and expressed as change in footpad thickness (Δmm).

Assay [2] concerns MIF-induced proliferation of S112 human dermal fibroblasts. In words: dermal fibroblast proliferation induced by recombinant MIF. The assay is classed as cell-based. The settings on record: compound 0.013 μM. As for the experimental part:
The activity of compound 5 was studied in a bioassay utilising MIF-induced proliferation of human dermal fibroblasts. S112 human dermal fibroblasts were propagated in RPMI/10% foetal calf serum (FCS). Prior to experimentation, cells were seeded at 10^5 cells/ml in RPMI/0.1% 13SA for 18 hours. At time point zero, culture medium was replaced with RPMI/10% FCS and treatments administered. Cells were treated with recombinant human macrophage migration inhibitory factor (MIF) 50 ng/ml and/or compound 5 at a 1-1000 molar ratio to the concentration of MIF. At a time point 30 hours later, cells were pulsed with 1 μCi/well of ^3H-thymidine. At a time point 48 hours after commencement of the experiment, cells were harvested using a semi-automated cell harvester. The radioactivity incorporated into DNA was determined by liquid scintillation counting, with results expressed as [^3H] thymidine incorporation.

Assay [3] concerns murine endotoxic shock model. In words: murine endotoxic shock model (LPS), cytokines by ELISA. Format: in vivo, mice. In general terms: An ELISA detects its analyte on a solid surface through an enzyme-linked reagent.
For assay [4], the system named is IL-1-induced COX-2 expression. In words: IL-1-induced COX-2 expression in S112 human dermal fibroblasts (MIF-dependent bioassay). The assay is classed as cell-based. As for the experimental part: The activity of compounds was studied in a bioassay utilising MIF-dependent activation of human dermal fibroblasts. […] IL-1-induced COX-2 expression is therefore a MIF-dependent event. […] Prior to experimentation, cells were seeded at 10^5 cells/ml in RPMI/0.1% BSA for 18 hours. […] After 6 hours, cells were collected and intracellular COX-2 protein determined by permeabilisation flow cytometry. […] Cellular fluorescence was determined using a flow cytometer. At least 5000 events were counted for each reading, each of which was performed in duplicate, and the results expressed in mean fluorescence intensity (MFI) after subtraction of negative control-labelled cell fluorescence. The effect of each compound was determined by subtracting the IL-1+compound-treated cell MFI from the IL-1-treated cell (control) MFI and expressed as % inhibition. In each case the % inhibition of IL-1-induced COX-2 expression is expressed as the mean, or mean±SEM where results are available from multiple experiments.

For `CCCCCOC(=O)c1ccc2[nH]c(=O)[nH]c2c1` [Compound 5], in assay [1], the “cutaneous DTH reactions (change in footpad thickness)” value was “statistically significant reduction”. For the same compound, the “effect on proliferation of S112 cells treated with recombinant human MIF” value in assay [2] (FIG. 12) was “marked and statistically significant inhibitory effect”. Also, the inhibition at 0.013 µM in assay [2] (Homo sapiens, Fibroblast, read-out: % inhibition of MIF-induced proliferation, rhMIF 50 ng/ml, S112, P < 0.001) stood at 98%. Besides, the “Serum IL-6 at 6 h, LPS + cpd” value in assay [3] (IP injection 1 mg/kg at −1 h, LPS alone 215100) turned out to be 101000; in assay [3] (IP injection 5 mg/kg at −1 h, LPS alone 215100), 108200; in assay [3] (IP injection 15 mg/kg at −24, −12, −1 h, LPS alone 261900) it was 162800. In assay [4] (Homo sapiens, Fibroblast, compound 1 μM, S112 cells, IL-1 0.1 ng/ml, 6 hours), this compound yielded an inhibition at 1 µM of 7.7%. In assay [4] (Homo sapiens, Fibroblast, compound 10 μM, S112 cells, IL-1 0.1 ng/ml, 6 hours), the inhibition at 10 µM is 21.4%. Besides, in assay [4] (Homo sapiens, Fibroblast, compound 25 μM, S112 cells, IL-1 0.1 ng/ml, 6 hours), the inhibition at 25 µM was determined as 34%. The inhibition at 50 µM in assay [4] (Homo sapiens, Fibroblast, compound 50 μM, S112 cells, IL-1 0.1 ng/ml, 6 hours, read-out: % inhibition of IL-1-induced COX-2 expression) stood at 48.4%. In assay [4] (Homo sapiens, Fibroblast, compound 100 μM, S112 cells, IL-1 0.1 ng/ml, 6 hours), this compound showed an inhibition at 100 µM of 52.2%. Moreover, the “% Inhibition of IL-1 induced COX-2 expression” value in assay [4] (Table 2 experiment, Compound 5 50 μM alone) is given as 45.1%.

Values taken from patent publication US7709514B2, “Therapeutic molecules and methods-1” (Cortical Pty Ltd, priority 2002, dated 2010).
